Laboratory results reported in patent publication US20120207835A1, “BROAD-SPECTRUM BIOCIDE COMPOSITIONS AND A METHOD FOR THEIR PREPARATION” (BROMINE COMPOUNDS LTD., priority 2009, published 2012).

Experiments:
A. niger = assay: Agar plate test: diameter of the A. niger growth ring after contact with biocide matrix; assay type: cell-based; settings: for A. niger diameters (cm), 3 days: day 3; for A. niger diameters (cm), 7 days: day 7; for A. niger diameters (cm), 14 days: day 14; for A. niger diameters (cm), 21 days: day 21; for A. niger diameters (cm), 28 days: day 28
Description: Samples of the prepared materials were dispersed in hot (˜45° C.) agar, under stirring. […] Pure DBNPA and commercial biocide (OTW) were used as standards. All the results were duplicated to assure accuracy.

[1] = room temperature; cited from earlier work
[2] = 300 ppm in agar (column DBNPA in agar, ppm), inoculum plug ID 1 cm
[3] = 300 ppm in agar, inoculum plug ID 1 cm

| Compound | concentration at which activity is demonstrated (A. niger) | time over which activity is lost (A. niger; 300 ppm DBNPA) | A. niger diameters (cm), 3 days (A. niger; [2]) | A. niger diameters (cm), 7 days (A. niger; [3]) | A. niger diameters (cm), 14 days (A. niger; [3]) | A. niger diameters (cm), 21 days (A. niger; [3]) | A. niger diameters (cm), 28 days (A. niger; [3]) | A. niger diameters (cm), 3 days (A. niger; 1000 ppm DBNPA in agar) | A. niger diameters (cm), 7 days (A. niger; 1000 ppm DBNPA in agar) | A. niger diameters (cm), 14 days (A. niger; 1000 ppm DBNPA in agar) | A. niger diameters (cm), 21 days (A. niger; 1000 ppm DBNPA in agar) | A. niger diameters (cm), 28 days (A. niger; 1000 ppm DBNPA in agar) | time to loss of activity by decomposition in aqueous media [1] |
| --- | --- | --- | --- | --- | --- | --- | --- | --- | --- | --- | --- | --- | --- |
| N#CC(Br)(Br)C(N)=O [DBNPA, 2,2-dibromo-3-nitrilopropionamide] | > 1000 ppm | 3 days | 3.7 cm | 10 cm | 10 cm | 10 cm | 10 cm | 1 cm | 1 cm | 1 cm | 1 cm | 1 cm | 2 to 3 days |
| CCCCCCCCn1sccc1=O [OTW neat, N-octylisothiazolinone] |  |  | 1 cm | 1 cm | 1 cm | 1 cm | 1 cm |  |  |  |  |  |  |
